Values of other authors, collected in patent publication US20030031715A1, “Pharmaceutical applications of hydrotropic agents, polymers thereof, and hydrogels thereof” (priority 2000, published 2003).

Key:
[1] = log (CO/CW), octanol and water; cited from earlier work
[2] = at 37° C.; cited from earlier work

SMILES	Partition Coefficient [1]	Water Solubility (μM) [2]	Water Solubility (μg/ml) [2]
O=C1NC(=O)C(c2ccccc2)(c2ccccc2)N1 [Phenytoin]	2.47	79.3 µM	20.0 µg/mL
C[C@H]1O[C@@H](O[C@H]2[C@@H](O)C[C@H](O[C@H]3[C@@H](O)C[C@H](O[C@H]4CC[C@@]5(C)[C@H](CC[C@@H]6[C@@H]5C[C@@H](O)[C@]5(C)[C@@H](C7=CC(=O)OC7)CC[C@]65O)C4)O[C@@H]3C)O[C@@H]2C)C[C@H](O)[C@@H]1O [Digoxin]	1.26	38.4 µM	30.0 µg/mL
CN(C)CCCN1c2ccccc2Sc2ccc(Cl)cc21 [Chlorpromazine]	3.17	94.1 µM	30.0 µg/mL
C[C@@H]1C[C@H]2[C@@H]3CCC4=CC(=O)C=C[C@]4(C)[C@@]3(F)[C@@H](O)C[C@]2(C)[C@@]1(O)C(=O)CO [Dexamethasone]	1.95	25.5 µM	10.0 µg/mL
CCCCNC(=O)NS(=O)(=O)c1ccc(C)cc1 [Tolbutamide]		202.6 µM	54.8 µg/mL
COc1ccc2c(c1)c(CC(=O)O)c(C)n2C(=O)c1ccc(Cl)cc1 [Indomethacin]	4.27	55.9 µM	20.0 µg/mL
CCC(C)n1ncn(-c2ccc(N3CCN(c4ccc(OCC5COC(Cn6cncn6)(c6ccc(Cl)cc6Cl)O5)cc4)CC3)cc2)c1=O (stereo not drawn) [Itraconazole]	5.66	2.8 µM	2.0 µg/mL
COC(=O)C1=C(C)NC(C)=C(C(=O)OC)C1c1ccccc1[N+](=O)[O-] [Nifedifine]	2.20	28.9 µM	10.0 µg/mL
O=c1[nH]c2ccccc2n1C1CCN(CCCC(c2ccc(F)cc2)c2ccc(F)cc2)CC1 [Pimozide]	4.50	2.2 µM	1.0 µg/mL
C[C@]12CC[C@@H]3c4ccc(O)cc4CC[C@H]3[C@@H]1CCC2=O [Estrone]	3.69		
CCOc1ccc(NC(C)=O)cc1 [Phenacetin]	1.55		
COC(=O)Nc1nc2ccc(C(=O)c3ccccc3)cc2[nH]1 [Mebendazole]	2.83		
CC(C)(C)c1ccc(C(O)CCCN2CCC(C(O)(c3ccccc3)c3ccccc3)CC2)cc1 (stereo not drawn) [Terfenadine]	4.05	152.8 µM	72.1 µg/mL
O=C(O)Cc1ccccc1Nc1c(Cl)cccc1Cl [Diclofenac]	1.12	10.1 µM	3.0 µg/mL
C#C[C@]1(O)CC[C@H]2[C@@H]3CCC4=CC(=O)CC[C@@H]4[C@H]3CC[C@@]21C [Norethindrone]	3.15		
COC(=O)[C@H]1[C@H]2C[C@@H]3c4[nH]c5cc(OC)ccc5c4CCN3C[C@H]2C[C@@H](OC(=O)c2cc(OC)c(OC)c(OC)c2)[C@@H]1OC [Reserpine]	3.73	1.6 µM	1.0 µg/mL
C(=C\c1ccccc1)/CN1CCN(C(c2ccccc2)c2ccccc2)CC1 [Cinnarizine]		<1.0 µM	<0.4 µg/mL
CN1CCN(CCCN2c3ccccc3Sc3ccc(C(F)(F)F)cc32)CC1 [Trifluoperazine]	4.15		
CO[C@H]1C[C@@H]2CC[C@@H](C)[C@@](O)(O2)C(=O)C(=O)N2CCCC[C@H]2C(=O)O[C@H]([C@H](C)C[C@@H]2CC[C@@H](O)[C@H](OC)C2)CC(=O)[C@H](C)/C=C(\C)[C@@H](O)[C@@H](OC)C(=O)[C@H](C)C[C@H](C)/C=C/C=C/C=C/1C [Rapamycin]		3.3 µM	3.0 µg/mL
C[C@]12CCC(=O)C=C1CC[C@@H]1[C@@H]2[C@@H](O)C[C@@]2(C)[C@H]1CC[C@]2(O)C(=O)CO [Hydrocortisone]	1.52		
